1 molecule from patent US6590123B2, “Aminobenzoic acid derivatives having anti-tumorigenic activity, methods of making and using the same” (Mount Sinai School of Medicine of New York University, priority 1998, dated 2003) can be followed below.

For assay [1], the system named is MOT myocardial cell line. Briefly: Block of mitosis, morphology by microscopy. Type of assay: cell-based, rat. Further details: key to Block of Mitosis: +Block of mitosis was observed; −no mitotic blocking. As for the experimental part:
(§1) All cell lines, with the exception of human SP cells, a biphenotypic leukemic cell line (reference 10 & 11), were obtained from the American Tissue Culture Collection (Rockville, Md.) and were cultured under conditions recommended by the vendor. EL4 murine leukemia lymphoma (as suspension) and B16 mouse melanoma (as monolayer) cell lines were cultivated in RPMI-1640 medium supplemented with 10% fetal bovine serum (FBS), penicillin (250 μ/ml) and streptomycin (250 μml); MOT, a non-tumor proliferative myocardial cell line from rat and NIH 3T3, a non-malignant and proliferative fibroblast cell line from mouse were both cultured as monolayers in Dulbecco's Modified Eagle's Medium with 10% heat inactivated calf serum. CEM, a human acute T-cell leukemic cell line, was cultured as a suspension in Iscove's Dulbecco's Medium with 10% heat inactivated fetal calf serum and antibiotics. PC-3 cells, a human prostate cancer line, was cultured as monolayers in RPMI-1640 with 10% FBS. SP cells were cultured in Minimum Eagle's Medium plus 10% FBS. Human peripheral blood lymphocytes (PBL) were isolated from whole blood of healthy individuals by Ficoll-Hypaque gradient method. Isolated PBL were maintained in RPMI-1640 in the presence of 10% homologous plasma at 37° C. All cells were incubated at 37° C. in 5% C02. Cells in exponential growth were used. […]

Assay [2] has as its system SP cells. Briefly: Cytotoxicity, ID50 and ID90 by trypan blue exclusion. Type of assay: cell-based. Particulars: Human MDS, 48 hr. As for the experimental part: as §1, with “antibiotics.” for “antibiotics. PC-3 cells, a human prostate cancer line, was cultured as monolayers in RPMI-1640 with 10% FBS. SP cells were cultured in Minimum Eagle's Medium plus 10% FBS. Human peripheral blood lymphocytes (PBL) were isolated from whole blood of healthy individuals by Ficoll-Hypaque gradient method. Isolated PBL were maintained in RPMI-1640 in the presence of 10% homologous plasma at 37° C. All cells were incubated at 37° C. in 5% C02. Cells in exponential growth were used.”
(§2) Cells in suspension culture were seeded into 96-well microplates (Falcon, Oxnard, Calif.) at 10^5 cell per well, followed, by treatment with 0-10 μg/ml of the candidate compounds for 48 hr at 37° C. with total volume of 250 μl per well. Cell viability was assessed by trypan blue exclusion.
(§3) The ID50 and ID90 was determined in duplicate in every set of experiments, and each experiment was repeated 3 times under identical conditions. […]

Assay [3] relates to EL4 murine leukemia lymphoma. The assay is described as above. Format: cell-based. As to conditions: 48 hr. As for the experimental part:
as §1, with “antibiotics.” for “antibiotics. PC-3 cells, a human prostate cancer line, was cultured as monolayers in RPMI-1640 with 10% FBS. SP cells were cultured in Minimum Eagle's Medium plus 10% FBS. Human peripheral blood lymphocytes (PBL) were isolated from whole blood of healthy individuals by Ficoll-Hypaque gradient method. Isolated PBL were maintained in RPMI-1640 in the presence of 10% homologous plasma at 37° C. All cells were incubated at 37° C. in 5% C02. Cells in exponential growth were used.”
as §2, §3

The subject of assay [4] is NIH 3T3 fibroblast cell line. Briefly: Block of mitosis, morphology by microscopy. Format: cell-based, mouse. Further details: key to Block of Mitosis: +Block of mitosis was observed; −no mitotic blocking. As for the experimental part:
as §1

The test system of assay [5] is repolymerized microtubules. Briefly: Inhibition of microtubule disassembly by spectrophotometry, cell free system. Format: biochemical, calf. As to conditions: 20 μg/ml (66 μM). As for the experimental part: Purified tubulin was purchased from Sigma (St. Louis, Mo.). The effects of compounds 6, 7, 8, 9, paclitaxel and vinblastine on the microtubule assembly-disassembly process were determined using conditions recommended by the vendor. For assembly inhibition, 100 μl tubulin solution (500-600 μg protein/ml) was mixed gently with 400 μl reaction buffer containing 0.1 M MES (2-[N-morpholino]ethane sulfonic acid), 1 mM EGTA ([…]-N,N,N′,N′-tetraacetic acid), 0.5 mM MgCl2, 0.1 mM EDTA and 2.5 M gycerol at 37° C. Compounds 6, 7, 8, and 9 were next added to each sample at final concentrations of 10, 10, 1 and 1 μg/ml, respectively. After adding GTP to each sample to a final concentration of 1 mM, the microtubule assembly process was monitored by measuring the change of absorbance (OD) at 350 nm on a spectrophotometer (Ultrospec III, Pharmacia LKB, Uppsala, Sweden). […] Changes of absorbance (OD) were monitored at 350 nm for 30 min until the OD values in the controls returned to the starting level, i.e., when the assembly-disassembly cycle was completed.
Purified tubulin from calf brain was purchased from Sigma (St. Louis, Mo.). The effects of 3-BAABU (3-bromoacetoamido, benzoylurea) on the microtubule assembly-disassembly process were determined using the conditions recommended by the vendor. […]

Assay [6] has as its system B16 mouse melanoma. Briefly: Cytotoxicity, ID50 and ID90 (monolayer culture). Format: cell-based. Particulars: B16, Murine melanoma, 48 hr. As for the experimental part: as §1, with “method.” for “method. Isolated PBL were maintained in RPMI-1640 in the presence of 10% homologous plasma at 37° C. All cells were incubated at 37° C. in 5% C02. Cells in exponential growth were used.”
as §3

For assay [7], the system named is PC-3 cells. Briefly: Cytotoxicity, ID50 and ID90 (monolayer culture). Type of assay: cell-based. As to conditions: PC-3, Human Prostate Cancer, 48 hr. As for the experimental part: as §1, with “method.” for “method. Isolated PBL were maintained in RPMI-1640 in the presence of 10% homologous plasma at 37° C. All cells were incubated at 37° C. in 5% C02. Cells in exponential growth were used.”
as §3

≈ marks a conversion by molar mass, not a printed value.

Turning to `NC(=O)NC(=O)c1cccc(NC(=O)CBr)c1` [Compound 8, 3-Bromoacetoamido, benzoylurea], the “Block of Mitosis” value in assay [1] (MOT, Rat myocardiac cells (non-tumor), 37° C. for 48 hr) is on record as “−”; in assay [4] (3T3, Murine fibroblast (non-tumor), 37° C. for 48 hr), “−”. The morphologic effect result in assay [1] (rat myocardial cells, 1.0 μg/ml, 24 hr at 37° C.) is “no effect”; in assay [4] (murine fibroblast cells, 1.0 μg/ml, 24 hr at 37° C.), “no effect”. Besides, the ID90 was 0.71 ± 0.11 µg/mL (≈ 2.37 µM) in assay [2], 0.02 ± 0.004 µg/mL (≈ 0.0666 µM) in assay [3], 0.76 ± 0.09 µg/mL (≈ 2.53 µM) in assay [6] and 0.95 ± 0.17 µg/mL (≈ 3.17 µM) in assay [7]. Besides, the “effect on microtubular depolymerization” value in assay [5] is recorded as “not influenced”.
